Patent publication US5962451A, “Benzodiazepin derivatives useful as CCK-receptor antagonists” (Ferring BV, priority 1992, dated 1999)

Tests used:
[1] = system: Pentagastrin-stimulated gastric acid secretion; test: Measurement of Inhibition of Pentagastrin-stimulated Gastric Acid Secretion in dog (Heidenhain pouch); type: in vivo, male beagle dog; settings: beagle dog, oral, pentagastrin 8 μg/kg/hr, mean for 3-5 animals
Procedure: Measurement of Inhibition of Pentagastrin-stimulated Gastric Acid Secretion in doc
Assays were performed using male beagle dogs (7-12 kg) two months after surgical preparation of Heidenhain pouches following the conventional procedure. Each dog was used only once per week.
The animals were deprived of food with free access to water for 18 hr prior to the experiment. The gastric juice was collected from the gastric cannula by gravity drainage every 15 min, and acid output was determined by automatic titration with 0.05 N NaOH to pH 7.0 (Comtite-7, Hiranuma, Tokyo, Japan). Drugs were administered orally 3 hr after the start of the pentagastrin (8 μg/kg/hr) infusion. The effect of each drug was calculated as the percentage inhibition of stimulated acid output. […] Each result is a mean for 3-5 animals.

CCK-B receptor = target: T1, CCK-B receptor (Rattus norvegicus, UniProt P30553); test: Measurement of Binding Affinity for CCK-B Receptors ([125I]BH-CCK-8 displacement, rat brain membranes); settings: SD rat brain membranes, [125I]BH-CCK-8, 25° C., 120 min, pH 6.5
T1 construct: the whole brain was immediately excised from each of the rats and homogenized; from tissue; host or cells: SD rat whole brain, membrane preparation
Procedure: Measurement of Binding Affinity for CCK-B Receptors
About 100 SD rats were decapitated without anaesthesia, the whole brain was immediately excised from each of the rats and homogenized in 10-fold volume of 0.32 M aqueous solution of sucrose by the use of a Teflon-coatedhomogenizer, the homogenate thus obtained was centrifuged for ten minutes at 900 g by the use of a cooled centrifuge, and the supernatant was further centrifuged for 15 minutes at 11500 g. The precipitate thus obtained was dispersed in 50 mM Tris-HCl buffer (pH 7.4) containing 0.08% Triton X-100, this suspension was allowed to stand for 30 minutes and again centrifuged for 15 minutes at 11500 g, the precipitate thus obtained was washed twice with 5 mM Tris-HCl buffer and twice with 50 mM Tris-HCl buffer in that order with centrifugal separation, the washed precipitate was suspended in 50 mM Tris-HCl buffer, and the suspension thus obtained was stored at -80° C. until the membrane preparation was required.
The membrane preparations were warmed to room temperature, diluted with 10 mM HEPES buffer (containing 130 mM NaCl, 5 mM MgCl2, 1 mM EGTA and 0.25 mg/ml bacitracin; pH 6.5) and incubated at 25° C. for 120 minutes in the presence of [^125 I]BH-CCK-8 and the test compound, then separated by suction filtration. Non-specific binding was determined in the presence of 1 μM CCK-8. The amount of labelled ligand bound to the receptor was measured by the use of a γ-counter; IC50 values were determined, being that concentration of test compound required to inhibit specific binding by 50%.
(§1) A high affinity for the CCK-A receptor in a gastrin/CCK-B antagonist is thought to be undesirable as it may lead to side-effects such as cholestasis and gall stone formation during therapy. Therefore it is preferable for the therapeutic agent to be selective for the CCK-B receptor. This selectivity is expressed by the ratio IC50. (CCK-A)/IC50 (CCK-B); the higher the value of this ratio the better is the selectivity.
The table below summarises CCK-B and CCK-A binding data for examples of preferred compounds, as well as the A/B ratio. Many compounds display a marked increase in CCK-B receptor binding affinity when compared to the compound of Example 281 of U.S. Pat. No. 4,820,834 (also known as L-365,260). Several compounds also show much greater selectivity for the CCK-B receptor over the CCK-A receptor than that reported for the compound of Example 281 of U.S. Pat. No.

CCK-A receptor = target: T2, CCK-A receptor (Rattus norvegicus, UniProt P30551); test: Measurement of Binding Affinity for CCK-A Receptors ([3H]L-364,718 displacement, rat pancreas membranes); settings: SD rat pancreas membranes, [3H]L-364,718, 37° C., 30 min
T2 construct: The pancreas of an SD rat was homogenized; from tissue; host or cells: SD rat pancreas, membrane preparation
T2 sequence (P30551 1-444): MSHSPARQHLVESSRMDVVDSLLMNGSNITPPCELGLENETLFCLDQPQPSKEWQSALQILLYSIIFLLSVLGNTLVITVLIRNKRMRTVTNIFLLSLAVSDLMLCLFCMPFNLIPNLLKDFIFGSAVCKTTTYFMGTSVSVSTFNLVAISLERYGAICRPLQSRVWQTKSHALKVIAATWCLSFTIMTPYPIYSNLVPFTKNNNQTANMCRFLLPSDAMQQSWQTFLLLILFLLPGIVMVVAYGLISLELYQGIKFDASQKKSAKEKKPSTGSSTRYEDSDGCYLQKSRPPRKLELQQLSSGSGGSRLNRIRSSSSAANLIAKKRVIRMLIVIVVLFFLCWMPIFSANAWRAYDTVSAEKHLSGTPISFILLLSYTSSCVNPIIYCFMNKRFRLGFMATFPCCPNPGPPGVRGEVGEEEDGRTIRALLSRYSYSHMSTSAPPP
Procedure: Measurement of Binding Affinity for CCK-A Receptors
The pancreas of an SD rat was homogenized in a 20-fold volume of 50 mM Tris-HCl buffer (pH 7.7) by the use of a Polytrone-type homogenizer, the homogenate was twice centrifuged for 10 minutes at 50000 g by the use of an ultra-centrifuge, the precipitate thus obtained was suspended in a 40-fold volume of 50 mM Tris-HCl buffer (containing 0.2% BSA, 5 mM MgCl2, 0.1 mg/ml bacitracin and 5 mM DTT; pH 7.7), and the suspension was stored at -80° C. until the membrane preparations were required.
The membrane preparations were then warmed to room temperature, diluted 1:10 with the buffer and incubated at 37° C. for 30 minutes in the presence of [^3 H]L-364,718 and the test compound then separated by suction filtration. Non-specific binding was determined in the presence of 1 μM L-364,718. The amount of labelled ligand bound to the receptor was measured by the use of a liquid scintillation counter; IC50 values were determined, being that concentration of test compound required to inhibit specific binding by 50%.
as §1, with “(CCK-A)/IC50 (CCK-B); the higher the value of this ratio the better is the selectivity.” left out

T1 sequence (P30553 whole entry): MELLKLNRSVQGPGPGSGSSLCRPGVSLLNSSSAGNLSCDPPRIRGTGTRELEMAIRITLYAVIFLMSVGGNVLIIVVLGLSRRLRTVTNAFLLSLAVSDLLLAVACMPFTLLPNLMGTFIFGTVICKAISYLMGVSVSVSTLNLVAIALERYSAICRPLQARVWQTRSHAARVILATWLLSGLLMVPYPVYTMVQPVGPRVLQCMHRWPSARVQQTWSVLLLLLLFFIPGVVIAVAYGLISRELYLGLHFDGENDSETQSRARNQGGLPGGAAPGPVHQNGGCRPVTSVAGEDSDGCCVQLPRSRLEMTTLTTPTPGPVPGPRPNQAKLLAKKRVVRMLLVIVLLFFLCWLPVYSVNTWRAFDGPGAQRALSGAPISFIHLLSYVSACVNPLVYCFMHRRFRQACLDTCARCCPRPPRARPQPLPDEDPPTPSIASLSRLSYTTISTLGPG

SMILES | maximum inhibition of stimulated acid output ([1]; 3 μmol/kg) [%] | IC50 (CCK-B receptor) [nM] | further results
CN(C)c1cccc(NC(=O)N[C@@H]2N=C(c3ccccc3)c3ccccc3N(CC(=O)C(C)(C)C)C2=O)c1 [Example 64, N-((3R)-1-tert-Butylcarbonylmethyl-2,3-dihydro-2-oxo-5-phenyl-1H-1,4-benzodiazepin-3-yl)-N'-(3-dimethylaminophenyl) urea] | 100 |  | 
Cc1cccc(NC(=O)NC2N=C(c3ccccc3)c3ccccc3N(CC(=O)C3(C)CCCCC3)C2=O)c1 (racemic) [Example 34, N-((3RS)-1-((1-Methylcyclohexyl)carbonylmethyl)-2,3-dihydro-2-oxo-5-phenyl-1H-1,4-benzodiazepin-3-yl)-N'-(3-methylphenyl) urea] |  | 0.38 | 
Cc1cccc(NC(=O)NC2N=C(c3ccccn3)c3ccccc3N(CC(=O)C3CCCC3)C2=O)c1 (racemic) [Example 14, N-((3RS)-1-Cyclopentylcarbonylmethyl-2,3-dihydro-2-oxo-5-(2-pyridyl)-1H-1,4-benzodiazepin-3-yl)-N'-(3-methylphenyl)urea] |  | 0.12 | IC50 (CCK-A receptor): 2600 nM
Cc1cccc(NC(=O)NC2N=C(c3ccccc3)c3ccccc3N(CC(=O)CC3CCCCC3)C2=O)c1 (racemic) [Example 32, N-((3RS)-1-Cyclohexylmethylcarbonylmethyl-2,3-dihydro-2-oxo-5-phenyl-1H-1,4-benzodiazepin-3-yl)-N'-(3-methylphenyl) urea] |  | 0.28 | 
Cc1cccc(NC(=O)NC2N=C(c3ccccc3)c3ccccc3N(CC(=O)C3CCCC3)C2=O)c1 (racemic) [Example 4, N-((3RS)-1-Cyclopentylcarbonylmethyl-2,3-dihydro-2-oxo-5-phenyl-1H-1,4-benzodiazepin-3-yl)-N'-(3-methylphenyl) urea] |  | 0.23 | 
Cc1cccc(NC(=O)N[C@@H]2N=C(c3ccccc3)c3ccccc3N(CC(=O)C(C)(C)C)C2=O)c1 [Example 26, N-((3R)-1-tert-Butylcarbonylmethyl-2,3-dihydro-2-oxo-5-phenyl-1H-1,4-benzodiazepin-3-yl)-N'-(3-methylphenyl) urea] | 53 |  | 
Cc1cccc(NC(=O)NC2N=C(c3ccccn3)c3ccccc3N(CC(=O)C(C)(C)C)C2=O)c1 (racemic) [Example 27, N-((3RS)-1-tert-Butylcarbonylmethyl-2,3-dihydro-2-oxo-5-(2-pyridyl)-1H-1,4-benzodiazepin-3-yl)-N'-(3-methylphenyl) urea] | 66 |  | 
CN(C)c1cccc(NC(=O)NC2N=C(c3ccccn3)c3ccccc3N(CC(=O)C(C)(C)C)C2=O)c1 (racemic) [Example 38, N-((3RS)-1-tert-Butylcarbonylmethyl-2,3-dihydro-2-oxo-5-(2-pyridyl)-1H-1,4-benzodiazepin-3-yl)-N'-(3-dimethylaminophenyl) urea] | 100 |  | 
Cc1cccc(NC(=O)N[C@@H]2N=C(c3ccccc3)c3ccccc3N(C)C2=O)c1 [reference compound] |  |  | maximum inhibition of stimulated acid output ([1]; 100 μmol/kg): 0%
